According to ChEMBL document CHEMBL3885881, “DrugMatrix”:

Organism: Rattus norvegicus
Assay: DrugMatrix - Regimen: Daily Repeat
Format: toxicity, organism-based, Sprague-Dawley
Parameters: regimen Daily Repeat, gender Male, age 6-8 weeks
Conditions: in vivo, po, route oral GAVAGE, […]; for ABSOLUTE BASOPHIL / ABSOLUTE EOSINOPHIL / ABSOLUTE LYMPHOCYTE / ABSOLUTE MONOCYTE / ABSOLUTE SEGMENTED NEUTROPHIL / BASOPHIL / EOSINOPHIL / ERYTHROCYTE COUNT / HEMATOCRIT / HEMOGLOBIN / LEUKOCYTE COUNT / LYMPHOCYTE / MEAN CORPUSCULAR HEMOGLOBIN / MEAN CORPUSCULAR HEMOGLOBIN CONCENTRATION / MEAN CORPUSCULAR VOLUME / MONOCYTE / NEUTROPHIL / NUCLEATED RED BLOOD CELLS / PLATELET COUNT: tissue Blood; for ALANINE AMINOTRANSFERASE / ALBUMIN / ALKALINE PHOSPHATASE / ASPARTATE AMINOTRANSFERASE / BLOOD UREA NITROGEN / CARBON DIOXIDE / CHLORIDE / CHOLESTEROL / CREATINE PHOSPHOKINASE / CREATININE / GLUCOSE / LACTATE DEHYDROGENASE / LIPASE / PHOSPHORUS / POTASSIUM / SODIUM / TOTAL BILIRUBIN / TOTAL PROTEIN / URIC ACID: tissue Plasma
[1] = 0 mg/kg, 72 h, dose level Control, time 3 day
[2] = 0 mg/kg, 120 h, dose level Control, time 5 day
[3] = 5 mg/kg, 72 h, dose level Low, time 3 day

SMILES: CC(C)n1c(/C=C/C(O)CC(O)CC(=O)O)c(-c2ccc(F)cc2)c2ccccc21 (centres undefined) [FLUVASTATIN]
- ABSOLUTE BASOPHIL [1]: 0 CELLS/uL
- ABSOLUTE EOSINOPHIL [1]: 33 CELLS/uL
- ABSOLUTE LYMPHOCYTE [1]: 9048.5 CELLS/uL
- ABSOLUTE MONOCYTE [1]: 80.17 CELLS/uL
- ABSOLUTE SEGMENTED NEUTROPHIL [1]: 1521.67 CELLS/uL
- BASOPHIL [1]: 0%
- EOSINOPHIL [1]: 0.17%
- ERYTHROCYTE COUNT [1]: 5.46 x10E6/uL
- HEMATOCRIT [1]: 32.87%
- HEMOGLOBIN [1]: 12.95 G/DL
- LEUKOCYTE COUNT [1]: 10.68 x10E3/uL
- LYMPHOCYTE [1]: 86.67%
- MEAN CORPUSCULAR HEMOGLOBIN [1]: 23.72 pg
- MEAN CORPUSCULAR HEMOGLOBIN CONCENTRATION [1]: 39.4 G/DL
- MEAN CORPUSCULAR VOLUME [1]: 60.18 fL
- MONOCYTE [1]: 0.83%
- NEUTROPHIL [1]: 12.33%
- NUCLEATED RED BLOOD CELLS [1]: 0 /100WBC
- PLATELET COUNT [1]: 1211.33 x10E3/uL
- ALANINE AMINOTRANSFERASE [1]: 76.67 u/L
- ALBUMIN [1]: 3.93 G/DL
- ALKALINE PHOSPHATASE [1]: 317.17 u/L
- ASPARTATE AMINOTRANSFERASE [1]: 81.17 u/L
- BLOOD UREA NITROGEN [1]: 12.33 mg/dL
- CARBON DIOXIDE [1]: 31.17 mmol/L
- CHLORIDE [1]: 98.33 MEQ/L
- CHOLESTEROL [1]: 67.17 mg/dL
- CREATINE PHOSPHOKINASE [1]: 312.33 u/L
- CREATININE [1]: 0.19 mg/dL
- GLUCOSE [1]: 165.5 mg/dL
- LACTATE DEHYDROGENASE [1]: 94.5 u/L
- LIPASE [1]: 9.83 u/L
- PHOSPHORUS [1]: 10.1 mg/dL
- POTASSIUM [1]: 5.16 MEQ/L
- SODIUM [1]: 143.02 MEQ/L
- TOTAL BILIRUBIN [1]: 0.2 mg/dL
- TOTAL PROTEIN [1]: 5.88 G/DL
- URIC ACID [1]: 0.68 mg/dL
- ABSOLUTE BASOPHIL [2]: 0 CELLS/uL
- ABSOLUTE EOSINOPHIL [2]: 14.67 CELLS/uL
- ABSOLUTE LYMPHOCYTE [2]: 9629.83 CELLS/uL
- ABSOLUTE MONOCYTE [2]: 72.5 CELLS/uL
- ABSOLUTE SEGMENTED NEUTROPHIL [2]: 1049.67 CELLS/uL
- BASOPHIL [2]: 0%
- EOSINOPHIL [2]: 0.17%
- ERYTHROCYTE COUNT [2]: 5.36 x10E6/uL
- HEMATOCRIT [2]: 33.82%
- HEMOGLOBIN [2]: 13.48 G/DL
- LEUKOCYTE COUNT [2]: 10.77 x10E3/uL
- LYMPHOCYTE [2]: 90.17%
- MEAN CORPUSCULAR HEMOGLOBIN [2]: 25.28 pg
- MEAN CORPUSCULAR HEMOGLOBIN CONCENTRATION [2]: 39.92 G/DL
- MEAN CORPUSCULAR VOLUME [2]: 63.3 fL
- MONOCYTE [2]: 0.67%
- NEUTROPHIL [2]: 9%
- NUCLEATED RED BLOOD CELLS [2]: 0.17 /100WBC
- PLATELET COUNT [2]: 1275.33 x10E3/uL
- ALANINE AMINOTRANSFERASE [2]: 93.67 u/L
- ALBUMIN [2]: 4.17 G/DL
- ALKALINE PHOSPHATASE [2]: 402.5 u/L
- ASPARTATE AMINOTRANSFERASE [2]: 122.83 u/L
- BLOOD UREA NITROGEN [2]: 14.75 mg/dL
- CARBON DIOXIDE [2]: 26.4 mmol/L
- CHLORIDE [2]: 98.5 MEQ/L
- CHOLESTEROL [2]: 57.5 mg/dL
- CREATINE PHOSPHOKINASE [2]: 305.17 u/L
- CREATININE [2]: 0.21 mg/dL
- GLUCOSE [2]: 142 mg/dL
- LACTATE DEHYDROGENASE [2]: 83.5 u/L
- LIPASE [2]: 85.83 u/L
- PHOSPHORUS [2]: 8.18 mg/dL
- POTASSIUM [2]: 5.46 MEQ/L
- SODIUM [2]: 144 MEQ/L
- TOTAL BILIRUBIN [2]: 0.25 mg/dL
- TOTAL PROTEIN [2]: 5.63 G/DL
- URIC ACID [2]: 0.8 mg/dL
- ABSOLUTE BASOPHIL [3]: 0 CELLS/uL
- ABSOLUTE EOSINOPHIL [3]: 0 CELLS/uL
- ABSOLUTE LYMPHOCYTE [3]: 7777.67 CELLS/uL
- ABSOLUTE MONOCYTE [3]: 91 CELLS/uL
- ABSOLUTE SEGMENTED NEUTROPHIL [3]: 864.67 CELLS/uL
- BASOPHIL [3]: 0%
- EOSINOPHIL [3]: 0%
- ERYTHROCYTE COUNT [3]: 5.27 x10E6/uL
- HEMATOCRIT [3]: 32.97%
- HEMOGLOBIN [3]: 13.1 G/DL
- LEUKOCYTE COUNT [3]: 8.73 x10E3/uL
- LYMPHOCYTE [3]: 89%
- MEAN CORPUSCULAR HEMOGLOBIN [3]: 24.87 pg
- MEAN CORPUSCULAR HEMOGLOBIN CONCENTRATION [3]: 39.77 G/DL
- MEAN CORPUSCULAR VOLUME [3]: 62.47 fL
- MONOCYTE [3]: 1%
- NEUTROPHIL [3]: 10%
- NUCLEATED RED BLOOD CELLS [3]: 0 /100WBC
- PLATELET COUNT [3]: 1163 x10E3/uL
- ALANINE AMINOTRANSFERASE [3]: 67 u/L
- ALBUMIN [3]: 3.93 G/DL
- ALKALINE PHOSPHATASE [3]: 305.67 u/L
- ASPARTATE AMINOTRANSFERASE [3]: 95.33 u/L
- BLOOD UREA NITROGEN [3]: 12 mg/dL
- CARBON DIOXIDE [3]: 30.67 mmol/L
- CHLORIDE [3]: 98 MEQ/L
- CHOLESTEROL [3]: 76 mg/dL
- CREATINE PHOSPHOKINASE [3]: 453.67 u/L
- CREATININE [3]: 0.18 mg/dL
- GLUCOSE [3]: 193.33 mg/dL
- LACTATE DEHYDROGENASE [3]: 209.33 u/L
- LIPASE [3]: 9.67 u/L
- PHOSPHORUS [3]: 10.07 mg/dL
- POTASSIUM [3]: 5.48 MEQ/L
- SODIUM [3]: 142.9 MEQ/L
- TOTAL BILIRUBIN [3]: 0.2 mg/dL
- TOTAL PROTEIN [3]: 5.8 G/DL
- URIC ACID [3]: 0.63 mg/dL
